Experiments:
[1] = test system: human reconstructed epidermis model EpiDerm; test: Extended skin irritation test in reconstructed human epidermis EpiDerm; type: cell-based; details: 1.0% in 50% PEG (10 μL); for Il-1α in culture medium: medium after first 24 hours
Description: Extended Skin Irritation Tests on Reconstructed Human Epidermis-Exposure Time Extended to 7 Days.
In order to perform extended skin irritation (safety) tests on the reconstructed human epidermis, the exposure time to the tested compounds was extended to 2 and 7 days in the human reconstructed epidermis model EpiDerm™ from MatTek. The epidermis was cultured according to the manufacturer's recommendations, using appropriate multi-well plates and culture media. Solutions of the tested compounds were applied to the epidermis using a positive displacement pipette and distributed using a sterile glass bulb headed Pasteur pipette. […] The epidermis was cultured in an incubator ensuring appropriate humidity, temperature (37° C.) and CO2 concentration (5%). The medium was replaced daily. After an appropriate incubation time, i.e. 2 days or 7 days, the epidermis was rinsed with sterile DPBS and incubated with MTT (Thiazolyl Blue Tetrazolium bromide) solution at 37° C. for 3 hours. After this time, a purple color of formazan was observed, correlated with tissue viability. […] Moreover, in the medium collected after the first 24 hours of EpiDerm epidermis culture, the level of interleukin 1α (Il-1α), which is a mediator of inflammation, was determined. Its level correlates with the unfavorable (irritating) effect of the tested substances on the epidermis. The level of IL-1α was determined using the Cayman Elisa test.

[2] = test system: keratinocytes (HaCaT); test: Safety, MTT test in keratinocytes; type: cell-based; details: 48 hours
Description: (§1) In order to test the safety of the compounds, both normal human cells were used: keratinocytes (HaCaT), fibroblasts (BJ), primary melanocytes that occur in the skin, as well as human cancer cells: the hepatocarcinoma line HepG2 and the neuroblastoma line SH-SY5Y, which are considered a model for the assessment of hepatocytotoxicity and neurocytotoxicity. The concentrations of the tested compounds in the range of […] were used in the studies. The cell lines used in the research were purchased from the American Type Culture Collection (ATCC) and were cultured in media recommended by the manufacturer with the addition of FBS and antibiotics in an incubator ensuring appropriate culture conditions, i.e. humidity, temperature and CO2 concentration. Cells were seeded into multiwell plates and incubated with the test compounds for 48 hours. After this time, MTT and LDH tests were performed to assess cell viability. The MTT test is based on the ability to transform the substrate: [3-(4,5-dimethyl-2-thiazolyl)-2,5-diphenyl-2H-tetrazolium bromide into a colored product only by living cells. The absorbance at 570 nm, which corresponds to the absorption maximum for the product, is directly proportional to cell viability. The LDH test is based on testing the activity of the enzyme lactate dehydrogenase in the culture medium, which is released from cells as a result of damage to the cell membrane, e.g. as a result of cell death. Triton X-100 was used as a positive control in the test. The determination is colorimetric, the substrate is transformed by the released enzyme into a colored product, an increase in absorbance indicates a larger amount of the released enzyme, and thus confirms greater damage to cell membranes. Tables 7 and 8 present the results obtained, which correspond to the viability of cells incubated with the compounds in relation to the viability of cells constituting a control sample, i.e. incubated with the solvent (DMSO) at the same concentration as in the case of the groups tested in the MTT test or in relation to the results obtained for the Triton X-100 positive control in the LDH test. They indicate that the compounds are safe at the concentrations tested.

[3] = test system: keratinocytes (HaCaT); test: Safety, LDH test in keratinocytes; type: cell-based; details: 48 hours, vs Triton X-100
Description: as §1

[4] = test system: S. typhimurium TA98; test: Ames microplate test, TA98; type: cell-based, Salmonella typhimurium
Description: Bacteria were grown overnight in growth medium.

[5] = test system: S. typhimurium TA100; test: Ames microplate test, TA100; type: cell-based, Salmonella typhimurium
Description: (§2) The study used the Ames microplate test (Ames MPF™ Penta 2 by Xenometrix, Allschwil, Switzerland). Growth medium, exposure medium, indicator medium, positive controls, hepatic microsomal fraction, NADP, glucose-6-phosphate, Salmonella typhimurium and Escherichia coli strains were components of the purchased experimental kit. Bacteria were grown overnight in growth medium. They were then exposed to the test compound at the appropriate concentration in exposure medium without or with the rat microsomal fraction S9 in 24-well plates for 90 min at 37° C. with shaking. Then, indicator medium was added to the wells and pipetted into 384-well plates, which were incubated for 48 hours at 37° C. without shaking. Results were assessed by counting the wells in which the medium turned yellow for each experimental condition.

[6] = test system: CHO-K1 cells; test: Cytotoxicity (MTT) in CHO-K1 cells before the micronucleus test; type: cell-based, Chinese hamster; details: 24 hours
Description: The assay was performed using a Chinese hamster ovary cell line (CHO-K1) purchased from the American Type Culture Collection (ATCC). The cells were cultured in F-12K medium with the addition of 10% fetal bovine serum (FBS) and antibiotics (streptomycin/penicillin) in an incubator at 37° C. and 5% CO2 concentration). Before the actual micronucleus test, a cytotoxicity assessment was performed to ensure that the actual test was performed only at safe concentrations. For this purpose, cells were transferred to 96-well plates and incubated with the tested compounds for 24 hours. After this time, the MTT test was performed and cell viability was assessed in comparison to the control group (cells cultured with DMSO at the same concentration as in the case of the tested samples).

[7] = test system: E. coli WP2; test: Ames microplate test, E. coli WP2;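 also: bacteria exposed to compound for 90 min at 37 °C in 24-well plates, then transferred with indicator medium to 384-well plates and incubated 48 h before yellow well counting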
Description: as §2

SMILES	MTT, Keratinocytes (HaCaT) ([2]; 100 μM)	MTT, Keratinocytes (HaCaT) ([2]; 150 μM)	MTT, Keratinocytes (HaCaT) ([2]; 200 μM)	MTT, Keratinocytes (HaCaT) ([2]; 250 μM)	LDH, Keratinocytes (HaCaT) ([3]; 100 μM)	LDH, Keratinocytes (HaCaT) ([3]; 150 μM)	LDH, Keratinocytes (HaCaT) ([3]; 200 μM)	LDH, Keratinocytes (HaCaT) ([3]; 250 μM)	Increase in the number of yellow wells compared to the reference level, TA98 ([4]; 0.5 mM, without S9)	Increase in the number of yellow wells compared to the reference level, TA98 ([4]; 1.0 mM, without S9)	Increase in the number of yellow wells compared to the reference level, TA98 ([4]; 2.0 mM, without S9)	Increase in the number of yellow wells compared to the reference level, TA100 ([5]; 0.5 mM, without S9)	Increase in the number of yellow wells compared to the reference level, TA100 ([5]; 1.0 mM, without S9)	Increase in the number of yellow wells compared to the reference level, TA100 ([5]; 2.0 mM, without S9)	% Viability [mean], CHO-K1 ([6]; 100 μM)	% Viability [mean], CHO-K1 ([6]; 150 μM)	% Viability [mean], CHO-K1 ([6]; 200 μM)	Increase in the number of yellow wells compared to the reference level, E. coli WP2 ([7]; 0.5 mM, without S9)	Increase in the number of yellow wells compared to the reference level, E. coli WP2 ([7]; 1.0 mM, without S9)	Increase in the number of yellow wells compared to the reference level, E. coli WP2 ([7]; 2.0 mM, without S9)	further results
O=C(/C=C/c1ccccc1)NCCCCCO [Compound A-133, (2E)-N-(5-hydroxypentyl)-3-phenylprop-2-enamide]	101.35 ± 2.17 % of solvent control	101.40 ± 2.08 % of solvent control	101.51 ± 2.49 % of solvent control	95.53 ± 2.80 % of solvent control	3.23 percentage of positive control	3.08 percentage of positive control	6.38 percentage of positive control	19.58 percentage of positive control	0.44	0.33	0.67	0.60	1.03	0.57	94.6%	97.2%	89.1%	0.73	0.37	1.10	Viability [% of control, mean ± SD] 2 days [1]: 107.19 ± 7.45 % of control; Viability [% of control, mean ± SD] 7 days [1]: 107.26 ± 21.82 % of control; Il-1α in culture medium [1]: 34.99 ± 1.17 pg/mL; Increase in the number of yellow wells compared to the reference level, TA98 ([4]; 0.5 mM, + S9): 0.50; Increase in the number of yellow wells compared to the reference level, TA98 ([4]; 1.0 mM, + S9): 0.67; Increase in the number of yellow wells compared to the reference level, TA98 ([4]; 2.0 mM, + S9): 1.00; Increase in the number of yellow wells compared to the reference level, TA100 ([5]; 0.5 mM, + S9): 0.83; Increase in the number of yellow wells compared to the reference level, TA100 ([5]; 1.0 mM, + S9): 0.78; Increase in the number of yellow wells compared to the reference level, TA100 ([5]; 2.0 mM, + S9): 0.61; Increase in the number of yellow wells compared to the reference level, E. coli WP2 ([7]; 0.5 mM, + S9): 0.27; Increase in the number of yellow wells compared to the reference level, E. coli WP2 ([7]; 1.0 mM, + S9): 0.44; Increase in the number of yellow wells compared to the reference level, E. coli WP2 ([7]; 2.0 mM, + S9): 0.53
O=C(/C=C/c1ccccc1)NCCCCCCO [H-425/21, (E)-N-(6-hydroxyhexyl)cinnamic acid amide]	–	–	–	–	–	–	–	–	0.27	0.54	0.80	0.73	0.80	0.73	87.6%	83.8%	88.0%	0.17	0.67	1.00	Viability [% of control, mean ± SD] 2 days [1]: 99.75 ± 15.49 % of control; Viability [% of control, mean ± SD] 7 days [1]: 104.01 ± 1.11 % of control; Il-1α in culture medium [1]: 60.29 ± 1.08 pg/mL; Increase in the number of yellow wells compared to the reference level, TA98 ([4]; 0.5 mM, + S9): 0.42; Increase in the number of yellow wells compared to the reference level, TA98 ([4]; 1.0 mM, + S9): 0.42; Increase in the number of yellow wells compared to the reference level, TA98 ([4]; 2.0 mM, + S9): 0.63; Increase in the number of yellow wells compared to the reference level, TA100 ([5]; 0.5 mM, + S9): 0.50; Increase in the number of yellow wells compared to the reference level, TA100 ([5]; 1.0 mM, + S9): 0.69; Increase in the number of yellow wells compared to the reference level, TA100 ([5]; 2.0 mM, + S9): 0.58; Increase in the number of yellow wells compared to the reference level, E. coli WP2 ([7]; 0.5 mM, + S9): 0.75; Increase in the number of yellow wells compared to the reference level, E. coli WP2 ([7]; 1.0 mM, + S9): 0.83; Increase in the number of yellow wells compared to the reference level, E. coli WP2 ([7]; 2.0 mM, + S9): 0.75
O=C(/C=C/c1ccc(Cl)cc1)NCCCO [H-330/21, (2E)-3-(4-chlorophenyl)-N-(3-hydroxypropyl)prop-2-enamide]	102.03 ± 1.45 % of solvent control	101.42 ± 2.04 % of solvent control	97.07 ± 2.81 % of solvent control	94.89 ± 1.06 % of solvent control	3.66 percentage of positive control	5.33 percentage of positive control	17.03 percentage of positive control	24.24 percentage of positive control	–	–	–	–	–	–	–	–	–	–	–	–	–
Cc1ccc(/C=C/C(=O)NCCCCCO)cc1 [H-415/21, (2E)-N-(5-hydroxypentyl)-3-(4-methylphenyl)prop-2-enamide]	101.11 ± 2.03 % of solvent control	101.78 ± 2.32 % of solvent control	100.88 ± 1.40 % of solvent control	88.54 ± 3.74 % of solvent control	2.95 percentage of positive control	6.70 percentage of positive control	10.18 percentage of positive control	18.19 percentage of positive control	0.47	0.24	0.35	0.92	0.58	0.75	102.2%	102.8%	87.2%	0.64	0.40	0.95	–
O=C(/C=C/c1ccc(Cl)cc1)NCCO [H-427/21, (2E)-3-(4-chlorophenyl)-N-(2-hydroxyethyl)prop-2-enamide]	100.47 ± 3.65 % of solvent control	98.15 ± 2.63 % of solvent control	99.24 ± 3.00 % of solvent control	89.94 ± 4.66 % of solvent control	2.76 percentage of positive control	3.69 percentage of positive control	6.50 percentage of positive control	17.79 percentage of positive control	–	–	–	–	–	–	–	–	–	–	–	–	–
